Data: patent US4895841A (priority 1987, dated 1990)
Structures can show the parent of a compound that is named as a salt. Where two headings read alike, the source gives them in different places.

How the values were obtained:
Toxicity tests on rats = settings: rat, in vivo, no serious toxicity
acetylcholinesterase [1] = biological target: T1, acetylcholinesterase (Mus musculus, UniProt P21836); assay: biochemical; type: biochemical
T1 construct: A mouse brain homogenate was used as an acetylcholinesterase source; from tissue; host or cells: mouse brain homogenate
T1 sequence (P21836 32-614): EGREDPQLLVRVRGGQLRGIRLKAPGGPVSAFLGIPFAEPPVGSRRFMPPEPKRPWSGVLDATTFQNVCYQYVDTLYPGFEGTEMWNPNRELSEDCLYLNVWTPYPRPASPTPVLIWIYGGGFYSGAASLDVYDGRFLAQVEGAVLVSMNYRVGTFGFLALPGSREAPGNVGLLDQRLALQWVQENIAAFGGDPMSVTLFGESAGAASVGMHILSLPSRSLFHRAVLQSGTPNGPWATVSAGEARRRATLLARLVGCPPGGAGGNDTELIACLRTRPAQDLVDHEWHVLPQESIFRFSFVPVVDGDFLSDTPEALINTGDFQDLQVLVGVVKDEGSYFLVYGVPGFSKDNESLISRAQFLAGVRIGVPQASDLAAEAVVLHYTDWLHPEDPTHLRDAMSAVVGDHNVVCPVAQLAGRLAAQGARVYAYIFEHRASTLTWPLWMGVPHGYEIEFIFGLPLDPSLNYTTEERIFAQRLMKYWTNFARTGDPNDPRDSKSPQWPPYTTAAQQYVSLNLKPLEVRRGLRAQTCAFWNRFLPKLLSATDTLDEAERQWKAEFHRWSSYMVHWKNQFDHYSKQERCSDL

[2] = test system: passive avoidance learning impairment induced by scopolamine; assay: Action on passive avoidance learning impairment induced by scopolamine; type: in vivo, Male Wistar rats; settings: scopolamine 0.5 mg/kg i.p.
Procedure: Action on passive avoidance learning impairment induced by scopolamine
See Z. Bokolanecky & Jarvik: Int. J. Neuropharmacol, 6, 217-222(1967).
Male Wistar rats were used as the test animal and a step-through light and dark box was used as an apparatus. A sample to detect was orally administered one hour before the training and the rats were treated with 0.5 mg/kg (i.p.) of scopolamine 30 min. before the training. In a training experiment, the animal was placed into a light room and, just after the animal had entered into a dark room, a guillotine door was closed, followed by delivery of an electric shock from the gid of the floor. After six hours, the animal was again placed into a light room for a retention experiment, and the time taken for the animal to enter the dark room was measured for evaluation of the effect of the sample.
The difference in the response time between the physiological saline administration group and the scopolamine administration group was taken as 100%, and the effect of the sample was expressed in terms of the percentage antagonism by the sample (Reverse %).
The number of animals per dose was 10 to 17.

acetylcholinesterase [3] = assay: Ex vivo acetylcholinesterase inhibitory action in rat cerebral hemispheres after oral administration; settings: 1 h after administration, vs saline control
Description: A sample to detect was orally administered to rats. After one hour of the administration, the cerebral hemispheres were dissected and homogenized, followed by the determination of the acetylcholinesterase activity. The group of rats treated with physiological saline was used as the control. Inhibition of AChE by samples ex vivo was expressed in terms of inhibition percent of the control value.

[4] = 0.25 mg/kg oral 1 h before training
[5] = 0.5 mg/kg oral 1 h before training
[6] = read-out: AChE inhibitory activity IC50
[7] = 1.0 mg/kg oral 1 h before training

CC(C)OC(=O)c1nccnc1C(=O)NCCC1CCN(Cc2ccccc2)CC1 [Example 13]
LD50 (Toxicity tests on rats): ≥ 100 mg/kg | IC50 (acetylcholinesterase [1]): 26 nM | Reverse % (percentage antagonism of scopolamine effect) [2, 4]: 39% | Reverse % (percentage antagonism of scopolamine effect) [2, 5]: 27%

O=C(NCCC1CCN(Cc2ccccc2)CC1)c1cnc2ccccc2n1 [Example 15, N-[4'-(1'-Benzylpiperidyl)ethyl]-2-quinoxalinecarboxylic amide]
LD50 (Toxicity tests on rats): ≥ 100 mg/kg | IC50 (acetylcholinesterase [1]; [6]): 94 nM | AChE inhibitory action (%) (acetylcholinesterase [3]; 10 mg/kg oral): 5% | AChE inhibitory action (%) (acetylcholinesterase [3]; 30 mg/kg oral): 14% | AChE inhibitory action (%) (acetylcholinesterase [3]; 100 mg/kg oral): 18% | Reverse % (percentage antagonism of scopolamine effect) [2, 7]: 51% | Reverse % (percentage antagonism of scopolamine effect) ([2]; 2.0 mg/kg oral 1 h before training): 30%

CCN1CC(=O)N(CCC2CCN(Cc3ccccc3)CC2)c2ccccc2C1 [Example 69]
LD50 (Toxicity tests on rats): ≥ 100 mg/kg | Reverse % (percentage antagonism of scopolamine effect) [2, 5]: 22% | Reverse % (percentage antagonism of scopolamine effect) [2, 7]: 38%

CN(CCC1CCN(CC2CCCCC2)CC1)C(=O)c1ccccc1 [Example 27, N-[4'-(1'-Cyclohexylmethylpiperidyl)ethyl]-N-methylbenzamide hydrochloride]
IC50 (acetylcholinesterase [1]; [6]): 410 nM

CN1CC(=O)N(CCC2CCN(Cc3ccccc3)CC2)c2ccccc2C1=O [Example 70]
IC50 (acetylcholinesterase [1]): 280 nM

CCOC(=O)N1CCC(CC2=Cc3cc(OC)c(OC)cc3C2=O)CC1 [Example 183, 4-[(5,6-Dimethoxy-1-indenon)-2-yl]methyl-1-ethoxycarbonylpiperidine]
IC50 (acetylcholinesterase [1]): 5300 nM

O=C1c2cc(F)ccc2CC1CC1CCN(Cc2ccccc2)CC1 (stereo not shown) [Example 193]
IC50 (acetylcholinesterase [1]): 200 nM

COc1cc2c(cc1OC)CC(CC1CCN(Cc3ccccc3)CC1)=C2 [Example 185, 1-Benzyl-4-[(5,6-dimethoxyinden)-2-yl]methylpiperidine hydrochloride]
IC50 (acetylcholinesterase [1]): 0.82 nM

COc1cc2c(cc1OCc1ccccc1)CC(=CC1CCN(Cc3ccccc3)CC1)C2=O [Example 215]
IC50 (acetylcholinesterase [1]): 4.2 nM

COc1cc2c(cc1OC)C(=O)C(CC1CCN(Cc3ccccc3)CC1)C2 (stereo not shown) [Example 4, 1-Benzyl-4-[(5,6-dimethoxy-1-indanon)-2-yl]-methylpiperidine hydrochloride]
Reverse % (percentage antagonism of scopolamine effect) ([2]; 0.125 mg/kg oral 1 h before training): 55% | Reverse % (percentage antagonism of scopolamine effect) [2, 4]: 36%

COc1cc2c(cc1O)CC(CC1CCN(Cc3ccccc3)CC1)C2=O (stereo not shown) [Example 197]
IC50 (acetylcholinesterase [1]): 380 nM

COc1cc2c(cc1OC)C(=O)C(CC1CCN(Cc3cccc(F)c3)CC1)C2 (stereo not shown) [Example 180, 1-(3-Fluorobenzyl)-4-[(5,6-dimethoxy-1-indanon)-2-yl]methylpiperidine hydrochloride]
IC50 (acetylcholinesterase [1]; read-out: Inhibitory activity on AChE IC50): 1 nM

Cc1ccc2c(c1)C(=O)C(CC1CCN(Cc3ccccc3)CC1)C2 (stereo not shown) [Example 194]
IC50 (acetylcholinesterase [1]): 69 nM

COc1cc2c(cc1OC)C(=O)C(CC1CCN(Cc3cccc4ccccc34)CC1)C2 (stereo not shown) [Example 241]
IC50 (acetylcholinesterase [1]): 220 nM

CCOC(=O)c1nccnc1C(=O)NCCC1CCN(Cc2ccccc2)CC1 [Example 72]
IC50 (acetylcholinesterase [1]): 20 nM

COc1ccc2c(c1OC)CC(=CC1CCN(Cc3ccccc3)CC1)C2=O [Example 208]
IC50 (acetylcholinesterase [1]): 62 nM

COc1cc2c(cc1OC)C(=O)C(CC1CCN(Cc3cccc(O)c3)CC1)C2 (stereo not shown) [Example 233]
IC50 (acetylcholinesterase [1]): 46 nM

O=C(c1ccncc1)N(CCC1CCN(Cc2ccccc2)CC1)c1ccccc1 [Example 19, dihydrochloride]
LD50 (Toxicity tests on rats): ≥ 100 mg/kg | IC50 (acetylcholinesterase [1]; [6]): 64 nM | Reverse % (percentage antagonism of scopolamine effect) [2, 5]: 37% | Reverse % (percentage antagonism of scopolamine effect) [2, 7]: 39%

O=C1Nc2ccccc2CN1CCC1CCN(Cc2ccccc2)CC1 [Example 8]
IC50 (acetylcholinesterase [1]; [6]): 13 nM

CN1c2ccccc2C(=O)N(CCC2CCN(Cc3ccccc3)CC2)c2ccccc21 [Example 12, 10-[4'-(1'-Benzylpiperidine)ethyl]-10,11-dihydro-5-methyl-5H-dibenzo[b,e][1,4]diazepin-11-one hydrochloride]
IC50 (acetylcholinesterase [1]): 40 nM

COc1cc2c(cc1O)C(=O)C(=CC1CCN(Cc3ccccc3)CC1)C2 [Example 214]
IC50 (acetylcholinesterase [1]): 8.4 nM

O=C(c1ccc(F)cc1)N(CCC1CCN(Cc2ccccc2)CC1)c1ccccc1 [Example 89]
IC50 (acetylcholinesterase [1]; [6]): 18 nM

COc1cc2c(cc1OC)C(=O)C(=CCCCC1CCN(Cc3ccccc3)CC1)C2 [Example 222]
IC50 (acetylcholinesterase [1]): 11 nM

O=C1C(=CC2CCN(Cc3ccccc3)CC2)CCCc2ccccc21 [Example 219]
IC50 (acetylcholinesterase [1]): 19000 nM

CC(=O)N(CCC1CCN(Cc2ccccc2)CC1)c1ccccc1 [Example 17, N-[4'-(1'-Benzylpiperidyl)ethyl]acetanilide]
IC50 (acetylcholinesterase [1]; [6]): 52 nM
